Test results from ChEMBL document CHEMBL4390688, “Accelerating the discovery of DGAT1 inhibitors through the application of parallel medicinal chemistry (PMC)” (Bioorg Med Chem Lett, 2019).
pIC50, pKi: −log10 of the molar value.

Tests used:
[1] = target: Voltage-gated inwardly rectifying potassium channel KCNH2 (Homo sapiens, UniProt Q12809); assay: Inhibition of human ERG
Mus musculus = assay: Reduction in lipid excursion in mouse at 10 mg/kg, po QD measured at 18 hrs post dose by lipid tolerance test relative to control; format: functional; parameters: scale not given: the % may be the effect or the level left
[2] = target: T1, Diacylglycerol O-acyltransferase 1 (Homo sapiens, UniProt O75907)
T1 sequence (O75907 whole entry): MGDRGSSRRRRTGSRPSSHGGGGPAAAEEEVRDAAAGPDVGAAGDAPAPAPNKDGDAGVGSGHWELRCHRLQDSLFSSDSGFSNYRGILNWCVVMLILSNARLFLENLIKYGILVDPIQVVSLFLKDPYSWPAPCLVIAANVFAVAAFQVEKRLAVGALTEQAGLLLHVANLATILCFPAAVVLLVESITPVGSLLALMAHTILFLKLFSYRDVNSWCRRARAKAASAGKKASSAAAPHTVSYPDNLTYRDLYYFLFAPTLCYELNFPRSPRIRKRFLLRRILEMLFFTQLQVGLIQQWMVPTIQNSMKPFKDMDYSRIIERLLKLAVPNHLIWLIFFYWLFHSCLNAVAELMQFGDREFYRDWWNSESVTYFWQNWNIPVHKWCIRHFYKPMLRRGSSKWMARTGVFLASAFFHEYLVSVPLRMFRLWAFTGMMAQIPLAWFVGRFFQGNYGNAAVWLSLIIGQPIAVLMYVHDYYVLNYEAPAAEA
Description: Inhibition of human DGAT1

[3] = target: T2, Diacylglycerol O-acyltransferase 1 (Mus musculus, UniProt Q9Z2A7)
T2 sequence (Q9Z2A7 whole entry): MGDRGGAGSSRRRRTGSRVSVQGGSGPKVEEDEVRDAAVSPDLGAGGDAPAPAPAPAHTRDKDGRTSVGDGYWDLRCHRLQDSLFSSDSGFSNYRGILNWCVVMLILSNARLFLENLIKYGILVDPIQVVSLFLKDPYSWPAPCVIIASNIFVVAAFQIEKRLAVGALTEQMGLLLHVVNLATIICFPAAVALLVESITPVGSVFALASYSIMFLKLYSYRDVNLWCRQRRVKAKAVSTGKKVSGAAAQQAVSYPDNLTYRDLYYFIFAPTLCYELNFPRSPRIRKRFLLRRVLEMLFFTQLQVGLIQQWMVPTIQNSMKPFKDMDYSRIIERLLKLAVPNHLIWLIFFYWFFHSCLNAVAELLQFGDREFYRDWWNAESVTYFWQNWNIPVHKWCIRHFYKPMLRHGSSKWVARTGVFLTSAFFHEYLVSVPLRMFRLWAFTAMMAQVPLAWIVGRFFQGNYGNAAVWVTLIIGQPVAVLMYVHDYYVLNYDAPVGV
Description: Inhibition of mouse DGAT1

[4] = target: T3, Sterol O-acyltransferase 1 (Homo sapiens, UniProt P35610)
T3 sequence (P35610 whole entry): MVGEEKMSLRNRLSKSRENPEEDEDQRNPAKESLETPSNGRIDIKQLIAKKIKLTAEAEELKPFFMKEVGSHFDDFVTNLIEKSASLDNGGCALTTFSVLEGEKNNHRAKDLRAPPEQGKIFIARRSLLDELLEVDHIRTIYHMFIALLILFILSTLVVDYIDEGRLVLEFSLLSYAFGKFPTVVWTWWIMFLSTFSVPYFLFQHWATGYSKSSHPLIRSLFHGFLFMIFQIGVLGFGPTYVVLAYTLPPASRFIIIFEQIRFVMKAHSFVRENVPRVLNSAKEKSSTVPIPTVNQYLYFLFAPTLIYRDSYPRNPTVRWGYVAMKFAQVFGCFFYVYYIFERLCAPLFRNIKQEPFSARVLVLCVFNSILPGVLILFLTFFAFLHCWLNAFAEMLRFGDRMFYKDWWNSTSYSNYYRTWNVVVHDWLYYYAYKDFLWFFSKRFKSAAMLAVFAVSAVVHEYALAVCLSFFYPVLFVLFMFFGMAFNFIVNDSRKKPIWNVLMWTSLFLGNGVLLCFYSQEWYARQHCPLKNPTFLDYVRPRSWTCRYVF
Description: Inhibition of human ACAT1

[5] = Distribution coefficient, log D of compound; format: physicochemical; settings: octanol/water

Voltage-gated inwardly rectifying potassium channel KCNH2, sequence (Q12809 whole entry): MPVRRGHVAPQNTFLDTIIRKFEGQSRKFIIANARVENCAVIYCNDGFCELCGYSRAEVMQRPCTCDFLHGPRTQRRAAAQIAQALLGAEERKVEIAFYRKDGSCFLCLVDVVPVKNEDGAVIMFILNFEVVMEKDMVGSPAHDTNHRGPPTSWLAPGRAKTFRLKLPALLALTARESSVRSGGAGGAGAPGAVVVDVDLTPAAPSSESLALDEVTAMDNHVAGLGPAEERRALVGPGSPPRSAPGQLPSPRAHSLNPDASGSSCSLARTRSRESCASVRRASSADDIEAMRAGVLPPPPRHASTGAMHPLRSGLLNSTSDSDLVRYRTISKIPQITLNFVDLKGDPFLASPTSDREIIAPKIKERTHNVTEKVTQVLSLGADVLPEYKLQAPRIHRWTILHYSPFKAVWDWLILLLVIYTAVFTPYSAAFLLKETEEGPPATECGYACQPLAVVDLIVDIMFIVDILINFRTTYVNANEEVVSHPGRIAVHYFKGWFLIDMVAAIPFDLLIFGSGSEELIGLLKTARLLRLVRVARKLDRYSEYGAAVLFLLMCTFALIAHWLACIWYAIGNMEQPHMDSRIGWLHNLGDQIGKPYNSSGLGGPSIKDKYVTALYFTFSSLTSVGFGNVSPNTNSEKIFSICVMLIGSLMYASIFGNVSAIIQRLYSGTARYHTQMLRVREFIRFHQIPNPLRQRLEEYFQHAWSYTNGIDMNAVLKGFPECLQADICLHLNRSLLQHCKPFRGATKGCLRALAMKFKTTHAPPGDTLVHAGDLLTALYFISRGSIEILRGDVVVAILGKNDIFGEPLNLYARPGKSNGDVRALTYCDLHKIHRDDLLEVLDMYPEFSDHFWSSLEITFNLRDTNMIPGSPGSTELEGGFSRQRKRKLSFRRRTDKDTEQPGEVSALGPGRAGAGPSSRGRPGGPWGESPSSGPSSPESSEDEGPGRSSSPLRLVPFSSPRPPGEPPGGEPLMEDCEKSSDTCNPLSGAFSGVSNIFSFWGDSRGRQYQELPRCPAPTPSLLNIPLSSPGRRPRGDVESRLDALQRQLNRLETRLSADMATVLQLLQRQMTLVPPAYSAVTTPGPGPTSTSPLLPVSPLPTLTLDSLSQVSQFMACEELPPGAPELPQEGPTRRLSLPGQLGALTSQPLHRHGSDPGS

| SMILES | pKi [1] | Activity (Mus musculus) [%] | pIC50 [2] | pIC50 [3] | pIC50 [4] | logD [5] |
| --- | --- | --- | --- | --- | --- | --- |
| O=C(O)[C@H]1CC[C@@H](Oc2ccc(-c3ccc(-c4nc5cc(Cl)ccc5[nH]4)cn3)cn2)CC1 | 5.27 | 144 | 8.82 | 8.55 | < 5.70 |  |
| Cc1ccc2[nH]c(-c3ccc(N4CCC(O[C@H]5CC[C@H](CC(=O)O)CC5)CC4)nc3)nc2n1 |  |  |  | 5.72 |  |  |
| O=C(O)C[C@H]1CC[C@@H](Oc2ccc(-c3ccc(-c4nc5cc(Cl)cnc5[nH]4)cn3)cn2)CC1 | 5.07 |  | 8.49 | 8.23 | 5.79 |  |
| O=C(O)c1ccc(CNc2ccc(-c3ccc(-c4nc5cc(Cl)ccc5[nH]4)cn3)cn2)cc1 | 4.92 |  | 8.02 | 7.08 | < 5.00 | 1.3 |
| O=C(O)C1CCC(Nc2ccc(-c3ccc(-c4nc5cc(Cl)ccc5[nH]4)cn3)cn2)CC1 (racemic) | 5.43 | 70 | 8.27 | 7.32 | < 5.70 | 1.37 |
| O=C(O)C1(COc2ccc(-c3ccc(-c4nc5cc(Cl)ccc5[nH]4)cn3)cn2)COC1 | 5.18 | 87 | 8.28 | 7.44 | < 5.00 | 1.16 |
| O=C(O)C[C@H]1CC[C@H](OC2CCN(c3ccc(-c4nc5cc(Cl)cnc5[nH]4)cn3)CC2)CC1 |  |  |  | 6.57 | < 5.00 |  |
| O=C(O)C1(COc2ccc(-c3ccc(-c4nc5cc(Cl)ccc5[nH]4)cn3)cn2)CCC1 | 4.70 | 89 | 8.77 | 8.30 | 5.76 | 1.24 |
| O=C(O)C[C@H]1CC[C@@H](Oc2ccc(-c3ccc(-c4nc5cc(C(F)(F)F)ccc5[nH]4)cn3)cn2)CC1 | 5.39 |  |  | 8.82 |  |  |
| FC(F)(F)c1ccc2[nH]c(-c3ccc(-c4ccccc4)cc3)nc2c1 | 5.64 |  | 5.88 |  |  |  |
| O=C(O)C1(COc2ccc(-c3ccc(-c4nc5cc(Cl)ccc5[nH]4)cn3)cn2)CC1 | 4.97 | 50 | 8.51 | 7.96 | 5.78 | 1.35 |
| N#Cc1ccc(-c2ccc(-c3nc4cc(C(F)(F)F)ccc4[nH]3)cc2)cc1 | 6.21 |  | 7.01 |  | 5.85 |  |
| O=C(O)C[C@H]1CC[C@@H](Oc2ccc(-c3ccc(-c4nc5c(F)cc(F)cc5[nH]4)cn3)cn2)CC1 | 5.42 |  |  | 8.64 |  |  |
| O=C(O)C[C@H]1CC[C@H](OC2CCN(c3ccc(-c4nc5cc(C(F)(F)F)cnc5[nH]4)cn3)CC2)CC1 | 4.92 |  | 7.63 | 6.90 | < 5.00 |  |
| O=C(O)[C@H]1CC[C@H](Oc2ccc(-c3ccc(-c4nc5cc(Cl)ccc5[nH]4)cn3)cn2)CC1 | 5.45 | 83 | 8.59 | 8.20 | 5.71 | 1.39 |
| O=C(O)C1(CNc2ccc(-c3ccc(-c4nc5cc(Cl)ccc5[nH]4)cn3)cn2)CC1 | 4.92 | 0 | 8.54 | 7.70 | < 5.00 | 1.33 |

| SMILES | pKi [1] | Activity (Mus musculus) [%] | pIC50 [2] | pIC50 [3] | pIC50 [4] | logD [5] |
| --- | --- | --- | --- | --- | --- | --- |
| CC1(C(=O)O)CCCN(c2ccc(-c3ccc(-c4nc5cc(Cl)ccc5[nH]4)cn3)cn2)C1 (racemic) | 5.70 | 63 | 8.35 | 7.44 | < 5.70 | 1.43 |
| Oc1ccc(-c2ccc(-c3nc4cc(C(F)(F)F)ccc4[nH]3)cc2)cc1 | 5.78 |  | 6.35 |  |  |  |
| O=C(O)CC1CCN(c2ccc(-c3ccc(-c4nc5cc(Cl)ccc5[nH]4)cn3)cn2)CC1 | 5.28 | 62 | 7.99 | 6.97 | < 5.70 | 1.48 |
| N#Cc1ccc(-c2ccc(-c3nc4cc(C(F)(F)F)ccc4[nH]3)cc2)cn1 | < 4.22 |  | 7.42 |  | < 5.00 |  |
| O=C(O)C[C@H]1CC[C@@H](Oc2ccc(-c3ccc(-c4nc5cc(Cl)ccc5[nH]4)cn3)cn2)CC1 | 5.52 |  |  | 8.77 |  |  |
| O=C(O)C[C@H]1CC[C@@H](Oc2ccc(-c3ccc(-c4nc5cc(F)c(F)cc5[nH]4)cn3)cn2)CC1 | 4.72 |  | 8.77 | 8.59 | < 5.70 |  |
| O=C(O)C[C@H]1CC[C@H](c2ccc(-c3ccc(-c4nc5cc(Cl)ccc5[nH]4)cc3)cc2)CC1 |  |  |  |  |  | 2.08 |
| FC(F)(F)c1ccc2[nH]c(-c3ccc(-c4ccc(N5CCOCC5)nc4)cc3)nc2c1 | 4.88 |  | 7.19 |  | 5.88 |  |
| CN1CCN(c2ccc(-c3ccc(-c4nc5cc(C(F)(F)F)ccc5[nH]4)cc3)cc2)CC1 | 6.09 |  | 7.18 |  | 5.87 |  |
| CN1CCN(c2ccc(-c3ccc(-c4nc5cc(C(F)(F)F)ccc5[nH]4)cc3)cn2)CC1 | 6.37 |  | 7.15 |  | 5.57 |  |
| CC(C)(COc1ccc(-c2ccc(-c3nc4cc(Cl)ccc4[nH]3)cn2)cn1)C(=O)O | 5.09 |  | 9.15 | 8.85 | 6.01 | 1.44 |
| FC(F)(F)c1ccc2[nH]c(-c3ccc(-c4cccnc4)cc3)nc2c1 | 5.85 |  | 6.90 |  |  |  |
| COc1ccc2[nH]c(-c3ccc(N4CCC(O[C@H]5CC[C@H](CC(=O)O)CC5)CC4)nc3)nc2n1 | 4.69 |  |  | 7.11 | < 5.00 |  |
| N#Cc1ccc2[nH]c(-c3ccc(N4CCC(O[C@H]5CC[C@H](CC(=O)O)CC5)CC4)nc3)nc2c1 | 5.52 |  |  | 6.28 | < 5.00 |  |
| O=C(O)C1CC(Nc2ccc(-c3ccc(-c4nc5cc(Cl)ccc5[nH]4)cn3)cn2)C1 (racemic) | < 4.22 |  | 7.66 | 6.61 | < 5.70 | 1.29 |
| O=C(O)C[C@H]1CC[C@H](c2ccc(-c3ccc(-c4nc5cc(C(F)(F)F)ccc5[nH]4)cc3)cc2)CC1 |  |  |  | 8.74 |  | 2.31 |
